# ChEMBL document CHEMBL1131134, “A novel class of adenosine A3 receptor ligands. 2. Structure affinity profile of a series of isoquinoline and quinazoline compounds” (J Med Chem, 1998)
# Tests used:
# [1] = biological target: Adenosine receptor A2a (Rattus norvegicus) (UniProt P30543); assay: Antagonistic activity assayed by displacement of specific [3H]-CGS-21,680 binding in rat striatal membrane (adenosine A2A receptor) at a conc of […].; assay type: cell membranes; conditions: Striatum
# [2] = biological target: T1, Adenosine receptor A1 (Rattus norvegicus) (UniProt P25099); assay: Antagonist activity by displacement of specific [3H]DPCPX binding in rat cortical membrane (Adenosine A1 receptor) at a Conc of […].; assay type: cell membranes
# T1 sequence (whole entry): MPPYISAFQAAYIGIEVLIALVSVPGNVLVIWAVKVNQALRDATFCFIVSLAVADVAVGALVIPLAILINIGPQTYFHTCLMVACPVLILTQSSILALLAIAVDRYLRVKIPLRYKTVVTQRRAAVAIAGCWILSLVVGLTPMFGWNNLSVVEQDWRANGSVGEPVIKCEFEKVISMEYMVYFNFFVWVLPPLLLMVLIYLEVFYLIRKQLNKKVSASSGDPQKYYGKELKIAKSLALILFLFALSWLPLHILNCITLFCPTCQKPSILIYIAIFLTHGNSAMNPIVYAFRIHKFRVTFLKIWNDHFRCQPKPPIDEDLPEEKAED
# [3] = Relative binding affinity for adenosine receptors A1 and A3 as ratio of Ki
# Sequence of Adenosine receptor A2a (Rattus norvegicus) (P30543 whole entry): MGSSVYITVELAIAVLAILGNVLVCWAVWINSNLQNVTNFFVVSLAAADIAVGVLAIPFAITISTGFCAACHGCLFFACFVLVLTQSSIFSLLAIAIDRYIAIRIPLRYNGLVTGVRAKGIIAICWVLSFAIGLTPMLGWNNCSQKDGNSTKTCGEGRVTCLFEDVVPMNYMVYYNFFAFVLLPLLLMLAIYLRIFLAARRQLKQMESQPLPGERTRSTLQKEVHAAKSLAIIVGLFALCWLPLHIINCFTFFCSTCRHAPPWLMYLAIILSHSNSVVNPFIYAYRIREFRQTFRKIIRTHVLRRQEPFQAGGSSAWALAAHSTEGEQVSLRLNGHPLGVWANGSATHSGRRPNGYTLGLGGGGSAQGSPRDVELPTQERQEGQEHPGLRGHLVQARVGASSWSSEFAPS
SMILES,Displacement [1] [%],Displacement [2] [%],Ratio [3]
COc1cccc(C(=O)Nc2nc(-c3ccccn3)cc3ccccc23)c1,0,22,
O=C(Nc1nc(-c2ccccn2)cc2ccccc12)c1ccccc1,0,,16
N=C(Nc1nc(-c2ccccn2)cc2ccccc12)c1ccccc1,4,,
Cc1ccc(C)c(C(=O)Nc2nc(-c3ccccn3)cc3ccccc23)c1,7,29,
COc1ccc(C(=O)Nc2nc(-c3ccccn3)cc3ccccc23)cc1,0,14,
Cc1cc(C)cc(C(=O)Nc2nc(-c3ccccn3)cc3ccccc23)c1,0,8,
O=C(Cc1nc(-c2ccccn2)cc2ccccc12)c1ccccc1,22,,0.36
COc1ccc(C(=O)Nc2nc(-c3ccccn3)nc3ccccc23)cc1,20,41,
O=C(Nc1nc(-c2ccccn2)cc2ccccc12)c1ccc(Cl)c(Cl)c1,0,0,
O=C(c1ccccc1)N(C(=O)c1ccccc1)c1nc(-c2ccccn2)nc2ccccc12,3,3,
O=C(c1ccccc1)N(C(=O)c1ccccc1)c1nc(-c2ccccn2)cc2ccccc12,27,,19
COc1ccc(C(=O)Nc2nc(-c3ccccn3)cc3ccccc23)cc1OC,20,41,
O=C(Nc1nc(-c2ccccn2)cc2ccccc12)c1cccc(Cl)c1,0,42,
CC(=O)Nc1nc(-c2ccccn2)nc2ccccc12,17,25,
Cc1ccc(C(=O)Nc2nc(-c3ccccn3)cc3ccccc23)cc1,0,37,
Cc1cccc(C)c1C(=O)Nc1nc(-c2ccccn2)cc2ccccc12,0,2,
Oc1nc(-c2ccccn2)cc2ccccc12,,21,
CC(C)C(=O)Nc1nc(-c2ccccn2)cc2ccccc12,48,38,
Oc1nc(-c2ccccn2)nc2ccccc12,10,16,
N=CNc1nc(-c2ccccn2)cc2ccccc12,42,,
O=C(Nc1nc(-c2ccccn2)nc2ccccc12)C(F)(F)F,0,8,
CC(=O)Nc1nc(-c2ccccn2)cc2ccccc12,18,24,
N=CNc1nc(-c2ccccn2)nc2ccccc12,17,38,
Cc1cccc(C(=O)Nc2nc(-c3ccccn3)cc3ccccc23)c1,0,35,
Cc1ccc(C(=O)Nc2nc(-c3ccccn3)cc3ccccc23)c(C)c1,0,14,
O=C(Nc1nc(-c2ccccn2)nc2ccccc12)c1ccccc1,2,0,
Cc1ccc(C(=O)Nc2nc(-c3ccccn3)cc3ccccc23)cc1C,0,16,
O=C(Nc1nc(-c2ccccn2)cc2ccccc12)c1ccc(Cl)cc1,0,11,
